Test results: patent publication US20110086096A1, “MODIFIED RELEASE 1- [ (3-HYDROXY-ADAMANT-1-YLAMINO)-ACETYL] -PYRROLIDINE-2 (S) -CARBONITRILE FORMULATION” (priority 2005, published 2011)

Legend:
[1] = Drug substance and tablet retest date; assay type: physicochemical; settings: drug substance, storage at 25° C.
Protocol: The vildagliptin drug substance (DS) is sensitive to moisture. Very tight packaging is necessary. Current retest date is 30 months with storage at 25° C.
For the CSF 100 mg, 150 mg and 200 mg strengths, the stability data are available up to 12 months at 25° C./60% RH and 30° 60% RH. […] The composition of vildagliptin 150 mg modified release tablets is bracketed by 100 mg and 200 mg strengths. Therefore, the stability of 150 mg tablets is expected to be same as 100 mg and 200 mg strengths. Thus a re-test period similar to that of 100 and 200 mg strengths is applied for 150 mg tablets.

[2] = Water solubility of drug substance; assay type: physicochemical; settings: heading: water solubility
From the text: A once a day MR dosage form is likely to require a significant level of polymer load for retarding drug diffusion. During the development, the applicant has selected monolithic formulation with low risk for dose dumping, eliminating coating technologies in favor of a matrix formulation. After intensive studies on compatibility, ability to retard diffusion pharmacokinetic and pharmacodynamic studies, and regulatory acceptance requirements the applicant narrowed the polymer choice to hydrophilic polymers, especially hydroxpropyl methyl cellulose (HPMC).

N#C[C@@H]1CCCN1C(=O)CNC12CC3CC(CC(O)(C3)C1)C2 [vildagliptin, 1-[(3-Hydroxy-adamant-1-ylamino)-acetyl]-pyrrolidine-2(S)-carbonitrile]
retest date [1]: 30 months
solubility [2]: > 125 mg/mL
